Experiment: gradient 5% acetonitrile 3 min, to 50% in 2 min, to 85% in 15 min, held 3 min, 100 µL/min
Details: column: Zorbax Extend-C18 2.1 x 50 mm; eluents: water / acetonitrile, 0.1% formic acid
Method in brief: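 Pure standards were run in mixtures of ~100 molecules by HPLC coupled to a quadrupole time-of-flight mass spectrometer. The column was a Zorbax Extend-C18 (2.1 × 50 mm, 1.8 μm) at 100 μL/min, with water and acetonitrile each containing 0.1% formic acid, in positive and negative ionization mode. Dead and dwell volumes were 40 μL and 900 μL. Retention time was taken from computationally picked adduct peaks, each manually inspected, with data collected over 3 months.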

RP-LC retention time | SMILES
644 s | CC(C)c1nnc(-c2coc(S(=O)(=O)N3CCN(C4CCCCC4)CC3)c2)o1
642 s | COc1ccccc1-n1c(SCC(=O)Nc2ncn[nH]2)nc2ccccc2c1=O
668 s | O=C(CCc1c(-c2ccccc2)nc2ccccn12)Nc1ccccc1Cl
640 s | COc1ccccc1CNC(=O)c1ccc2ncnc(N3CCCC3)c2c1
571 s | CS(=O)(=O)N1C[C@H]2CCN(Cc3c(F)cccc3Cl)C[C@H]21
789 s | Cc1cc2c(cc1S(=O)(=O)N1CCC(C(=O)NCc3ccccc3Cl)CC1)OCC(=O)N2
692 s | CCn1c(CNC(=O)C2CCC2)nc2c1CN(S(=O)(=O)c1ccc(Cl)cc1)CC2
873 s | COc1ccccc1Oc1ccc(S(=O)(=O)NCc2ccco2)cc1
813 s | COc1ccc(N2CC(c3noc(-c4cc(OC)c(OC)c(OC)c4)n3)CC2=O)cc1OC (centres undefined)
641 s | O=C(NCCc1cnc[nH]1)c1ccc2nc(CCc3ccccc3)oc2c1
1150 s | Cc1ccc(Sc2nccnc2N2CCCC(C(=O)NCc3ccccc3Cl)C2)cc1 (centres undefined)
832 s | O=C(Cc1csc2nc(-c3ccccc3)cn12)NCc1ccccc1Cl
922 s | COc1ccccc1NC(=O)CN1C(=O)C(c2ccc(Cl)cc2)=NC1(C)C
688 s | COCCCNC(=O)CCCn1c2ccccc2c2cnn(C)c(=O)c21
886 s | Cc1cccc(S(=O)(=O)N2CCC(OCc3nc(C)no3)CC2)c1
759 s | C=CCNC(=O)c1cnn(-c2ccc(-c3nc(C(C)(C)C)no3)cn2)c1C
788 s | COc1ccc(CNC(=O)C2=Cc3cccc(OC)c3OC2)cc1OC
973 s | CCCCN(C)C(=O)Cn1nc2c3cc(-c4cc(C)ccc4C)nn3ccn2c1=O
801 s | Cc1ccc(Cl)cc1NC(=O)N1CCC(CC(=O)N2CCCCC2)CC1
718 s | Cc1ccc(S(=O)(=O)N2CCC3(CC2)NCCN=C3NCc2cccc(F)c2)cc1
864 s | Cc1c(Cl)cccc1NC(=O)NC1CCN(c2ccc(F)cc2)C1=O (centres undefined)
1050 s | O=S(=O)(NCc1ccco1)c1cccc(-c2nc(-c3ccccc3)no2)c1

RP-LC retention time | SMILES
786 s | CCCCN(C)C(=O)c1ccc2c(c1)nc1n2CCN(C2CCCCC2)C1=O
620 s | O=C(CN1CCCC(COCc2ccccc2)C1)N1CCN(c2ccccc2)CC1 (centres undefined)
1100 s | O=C(Nc1ccccc1C(F)(F)F)N(CCc1cccs1)C1CC1
810 s | Cc1cc(C)nc(-n2nc(C)c3c2N(C)C(=O)CC3c2ccccc2Cl)n1 (centres undefined)
960 s | O=C(Cn1cccc1-c1nnc(-c2ccccc2)o1)Nc1cccc(F)c1
687 s | O=C(CN1CCC2(CC1)N=C(c1ccccc1)C(=O)N2)Nc1cccc(Br)c1
1000 s | Cc1ccc(Cn2c(N3CCCC(C(=O)NCCc4cccs4)C3)nc3ccsc3c2=O)cc1 (centres undefined)
1120 s | COc1ccc(NC(=O)C2=Cc3cc(Br)ccc3OC2)c(OC)c1
786 s | COc1ccccc1N1CCN(C(=O)c2cccc([N+](=O)[O-])c2)CC1
691 s | CC(C)NCc1ccc(-c2cccc(Cl)c2)o1
1400 s | Cc1ccc2oc(-c3noc(C(=O)NCCC4=CCCCC4)n3)c(C)c2c1
699 s | COc1ccc2c(c1)C=C(C(=O)Nc1ccc(OC)cc1OC)C=CO2
1010 s | CCc1ccc(N2CCC(C(=O)NCCc3c[nH]c4ccc(C)cc34)C2=O)cc1 (centres undefined)
798 s | CCOC(=O)C1CCN(C(=O)CCC(=O)N2CCCn3nc(-c4cn(C)c5ccccc45)cc32)CC1
1010 s | Cc1ccc(-c2nnc(COc3cccc(NC(=O)c4n[nH]c5c4CCCC5)c3)o2)cc1
676 s | COc1ccc(NC(=O)N2CCC(n3c(CC(C)C)nc4cccnc43)CC2)c(OC)c1
801 s | COCCNc1nnc(-c2nc(-c3ccc(F)cc3)no2)c2ccccc12
908 s | CCC(C)NC(=O)C1CCCN(c2nccn3nc(-c4ccc(C)cc4C)cc23)C1 (centres undefined)
963 s | COc1ccc(-c2ccnc3nc(CCc4ccccc4)nn23)c(F)c1
969 s | Cc1ccccc1CC(=O)Nc1cc(-c2cccs2)no1
799 s | Cc1nc(C)c(C(=O)Nc2ccc(F)cc2C)s1
1240 s | CCC(C)(C)NS(=O)(=O)c1ccc(-c2nc(C(C)C)cs2)s1

RP-LC retention time | SMILES
690 s | CC(=O)N1CCc2cc(N3CC(C(=O)NCc4cc(F)cc(F)c4)CC3=O)ccc21 (centres undefined)
1140 s | CCn1nccc1-c1cccc(-c2noc(-c3ccc(C#N)cc3)n2)c1
824 s | Cn1ccc(C(=O)N2CCCC2c2ccc(Cl)cc2)n1 (centres undefined)
832 s | CCS(=O)(=O)N1CCCc2cc(C(=O)NCc3ccc4c(c3)OCO4)ccc21
785 s | COC(=O)c1cc(OCC(=O)NCc2ccc3c(c2)OCO3)c2cc(F)ccc2n1
595 s | Cn1c(=O)c2ccn(CC(=O)N3CCN(c4ncccn4)CC3)c2n(C)c1=O
652 s | CCCN1C(=O)Cc2cc(C(=O)NC3CC3)ccc21
722 s | COc1ccc(-n2nc3c(N4CCCC(C(=O)NCCc5cccs5)C4)nnc(C)c3c2C)cc1 (centres undefined)
734 s | CC(C)CN(Cc1cccnc1)C1CN(S(=O)(=O)Cc2ccccc2F)C1
850 s | Cc1cccc(Cl)c1NC(=O)/C=C/c1ccccc1
585 s | CCn1nccc1C(=O)NC1CCN(c2ncnc3c2CCC3)C1 (centres undefined)
825 s | O=C(Cn1cccc1-c1nnc(C2CC2)o1)NCc1ccc(Cl)cc1
711 s | COCCCNC(=O)c1ccc(-n2nc(C)c3c2CC(C)(C)CC3=O)cc1
1070 s | O=S(=O)(c1cc(-c2nnc(C3CCC3)o2)co1)N1CCN(c2ccccc2F)CC1
747 s | COc1ccc(-c2c(NC(=O)c3ccco3)oc3c(C)cccc3c2=O)cc1OC
843 s | N#Cc1ccc(C(=O)NCC(=O)N2CCCc3ccccc32)c(F)c1
916 s | Cc1ccc(C(=O)N2CCCC(COc3ccc(C(=O)NC(C)C)cc3)C2)c(C)c1 (centres undefined)
1050 s | Cn1c(=O)n(CC(=O)N2CCCCC2)c(=O)c2cnc(-c3ccc(Cl)cc3)nc21
735 s | O=C(Nc1ccc2nc3n(c(=O)c2c1)CCCC3)Nc1ccccc1Br
778 s | Cc1ccc(CNC(=O)Cn2c(N(C)Cc3ccccc3)nc(C)cc2=O)cc1
709 s | O=C(CN1C(=O)NC2(CCCCC2)C1=O)Nc1ccc2c(c1)OCO2
978 s | COc1cccc(NC(=O)c2csc(-c3cn(C)c4ncccc34)n2)c1

RP-LC retention time | SMILES
824 s | CCn1cc(CCNC(=O)Nc2ccc(Cl)cc2F)c2cccnc21
783 s | COc1ccc(-c2cn3c(CC(=O)Nc4nc5ccc(C)cc5s4)csc3n2)cc1OC
761 s | Cc1nc2cc(N3CC(C(=O)NCc4ccc(Br)cc4)CC3=O)ccc2o1 (centres undefined)
772 s | COc1ccc(OC)c(NC(=O)C2CCCN2S(=O)(=O)c2cc3c(cc2C)NC(=O)CO3)c1 (centres undefined)
582 s | Cn1ncc2c3ccccc3n(CC(=O)NCCCN3CCOCC3)c2c1=O
590 s | COC(=O)C1=C(CN2CCOCC2)NC(=O)NC1c1ccccc1C (centres undefined)
632 s | CC(C)NC(=O)N1CC=C(c2cn(C(C)C)c3ncccc23)CC1
699 s | Cc1ccc(-c2nc3n(CC(=O)N4CCOCC4)c4c(c(=O)n3n2)CCC4)cc1
808 s | O=c1n(Cc2ccc(Cl)cc2)nc2c(S(=O)(=O)N3CCOCC3)cccn12
1090 s | COc1cccc(COC(=O)C2=CN(Cc3ccccc3)S(=O)(=O)N=C2C)c1
948 s | O=C(NCc1ccc(S(=O)(=O)N2CCCC2)s1)c1cccc(-c2nnc(-c3ccccc3)o2)c1
613 s | COc1ccccc1OCC(=O)N1CCN(c2nc(CN3CCOCC3)cs2)CC1
796 s | Cc1ccc(NC(=O)N2CC(c3nc(C)no3)C3(CCOCC3)C2)c(Cl)c1 (centres undefined)
955 s | Cc1cc(N2CCN(S(=O)(=O)c3ccc4cccc5c4c3CC5)CC2)nc(NC2CCCCC2)n1
1120 s | Cc1ccc(C2CC(=O)N(c3ccc(C(C)C)cc3)C(=O)C2)cc1
831 s | Cc1noc(C)c1CCC(=O)N1CCC2(CC1)CC(CCOCC1CC1)CCO2 (centres undefined)
1210 s | O=C(c1ccc(Cl)c(Cl)c1)N1CCN(c2nc(-c3ccccc3)cs2)CC1
688 s | Cc1ccc(S(=O)(=O)Nc2ccc(-c3cn4cccc(C)c4n3)cc2)c(C)c1
685 s | COc1ccc(NC(=O)Cn2c(C(C)C)nc3c(c2=O)CN(Cc2ccccc2)CC3)cc1
826 s | COc1ccc(NS(=O)(=O)c2cc3c(s2)CCN(C(=O)C2CC2)C3)cc1Cl
589 s | COc1ccc(NC(=O)N2CCN(c3cc(C)nc(N4CCOCC4)n3)CC2)c(OC)c1

SMILES | RP-LC retention time
Cn1ccc(C(=O)Nc2ccc(Cl)cc2C(=O)c2ccccc2)n1 | 1010 s
CCc1nnc(-c2ccc(=O)n(CC(=O)N3CCC4(CC3)OCCO4)c2)o1 | 594 s

Source: the METLIN SMRT retention time set (Domingo-Almenara et al. 2019)
